The series is described as follows: Human HepG2 cell viability assay in 384 well format. The series is classed as toxicity, cell-based. As to conditions: HepG2 cells, read-out: Inhibition. Details: dose 125 nL, time 70.5 hour; concentration not given beside the values.

In the case of `Cc1cc(CNc2ccc(-c3nc(C4CC4)no3)cn2)no1`, the cytotoxicity at 70.5 h is -4.31%.

As for `COc1ccc(F)c(-c2cc(C)nc(N)n2)c1`, the cytotoxicity at 70.5 h was -7.05%.

Regarding `O=C1CC2(CCN(Cc3ccc(-c4ccccc4)s3)C2)C(=O)N1` (configuration not stated), the cytotoxicity at 70.5 h was -3.29%.

Take `OC1(CN2CCCC2)CCCN(Cc2cnc(-c3ccco3)nc2)C1` (configuration not stated): the cytotoxicity at 70.5 h was determined as 2.98%.

Take `COCCC1CCN(CC(C)n2cnc3ccccc32)CC1` (configuration not stated): the cytotoxicity at 70.5 h was -17.3%.

As for `Cc1nn(C)c(C)c1CCC(=O)N1CC(c2cccnc2)C1`, the cytotoxicity at 70.5 h was 0.0861%.

Consider `CC(=O)Nc1ccc(Oc2cccc(CN3CCCC3)c2)cc1`, for which the cytotoxicity at 70.5 h is -1.93%.

For the compound `Cc1ccoc1C(=O)N1CCNCC1C(=O)NCc1ccncc1` (configuration not stated), the cytotoxicity at 70.5 h amounted to 3.11%.

Consider `O=C(N[C@H]1CN(C2CCOCC2)C[C@@H]1C1CC1)c1ccon1`, for which the cytotoxicity at 70.5 h is -4.68%.

As to `O=C(NCc1nc[nH]n1)c1cc(COc2cccc(C(F)(F)F)c2)[nH]n1`, the cytotoxicity at 70.5 h is 21.3%.

Turning to `c1ccc2c(c1)CCN(c1ncnc3sc4c(c13)CCNC4)C2`, the cytotoxicity at 70.5 h was -2.21%.

On to `CN1CCCC(CCC(=O)N2CCc3sc(C(=O)N(C)C)cc3C2)C1` (configuration not stated), for which the cytotoxicity at 70.5 h was -5.77%.

As for `Cn1cc(C(=O)N2CCCN(C3Cc4ccccc4C3)CC2)cn1`, the cytotoxicity at 70.5 h is -13.8%.

Regarding `CCN(CCO)C(=O)c1cc(Cn2c(C)nc3ccccc32)[nH]n1`, the cytotoxicity at 70.5 h was -9.25%.

With `Cc1nc(-c2cn(CCN)nn2)n(-c2ccc(C(F)(F)F)cc2)n1`, the cytotoxicity at 70.5 h stood at 5.79%.

Turning to `Nc1cc(C(=O)NCC2CCN(CCc3ccccc3)C2)ccn1` (configuration not stated), the cytotoxicity at 70.5 h is -6.39%.

Regarding `CNC(=O)[C@@H]1C[C@@H](n2cc(-c3ccc(CN4CC=CC4)cc3)nn2)CN1`, the cytotoxicity at 70.5 h was -9.45%.

Regarding `Cc1cnc(NCC(C)(C)N2CCOCC2)nc1`, the cytotoxicity at 70.5 h was -4.82%.

Turning to `COc1cccc(-c2n[nH]cc2C(=O)NC(C)c2nc(C(C)C)no2)c1` (configuration not stated), the cytotoxicity at 70.5 h was -8.56%.

Turning to `CC(C)(C)CN1CCCC2(CCN(C(=O)c3ccc(O)nc3)C2)C1` (configuration not stated), the cytotoxicity at 70.5 h was -7.83%.

Regarding `Cc1cc(-c2nn(C)c(Cl)c2CN2CCOCC2CC(N)=O)no1` (configuration not stated), the cytotoxicity at 70.5 h worked out at 6.65%.

As to `CC(=O)NCC1CCN(c2cc(C(C)C)nc3ccnn23)CC1`, the cytotoxicity at 70.5 h is -9.59%.

Turning to `Cc1cc(C(=O)N2CCOC(c3ccc(Cl)c(Cl)c3)C2)[nH]n1` (configuration not stated), the cytotoxicity at 70.5 h is -8.67%.

As for `N[C@@H](Cc1c[nH]cn1)C(=O)N1CCC(Oc2ccc(F)cc2)CC1`, the cytotoxicity at 70.5 h was -4.52%.

Regarding `CCn1nc(C)c(CCN2CC3(CCOC3)CCC2=O)c1C` (configuration not stated), the cytotoxicity at 70.5 h is 25.5%.

With `Cc1ccccc1N1CCCN(c2ccncn2)CC1`, the cytotoxicity at 70.5 h came out at 2.64%.

With `Cc1nccn1Cc1nnc(C2CCCN(c3cnccn3)C2)n1C` (configuration not stated), the cytotoxicity at 70.5 h is -18.6%.

On to `COc1ccc(/C=C/CN2CCC3(C2)CN(C)C(=O)O3)cc1` (configuration not stated), for which the cytotoxicity at 70.5 h is -6.62%.

Regarding `O=C(Cc1cccs1)N1C[C@@H]2CC[C@H](C1)N(Cc1ccccn1)C2=O`, the cytotoxicity at 70.5 h was -10.5%.

On to `O=C(Nc1cccc(-c2cscn2)c1)N1CCC2(CC1)CC(O)CO2` (configuration not stated), for which the cytotoxicity at 70.5 h was -11.6%.

`COc1cccc(CN(C)Cc2nc3cc(C)ccc3[nH]2)c1O`: the cytotoxicity at 70.5 h is -2.34%.

`CS(=O)(=O)c1ccc(NC(=O)N2C[C@H](O)[C@@H](N3CCOCC3)C2)cc1`: the cytotoxicity at 70.5 h is 20.5%.

For the compound `CCCc1cc(C(=O)N2C[C@@H](C)[C@](O)(C3CCC3)C2)[nH]n1`, the cytotoxicity at 70.5 h came out at 8.19%.

On to `CN(C)C[C@@H]1CN(C(=O)c2cc(-c3ccccc3)n[nH]2)C[C@@H]1CO`, for which the cytotoxicity at 70.5 h turned out to be 16.6%.

As to `Cc1cc(CN(C)CCC(O)c2ccccc2)nn1C` (configuration not stated), the cytotoxicity at 70.5 h is -2.1%.

On to `CCCn1cnnc1CNCc1c[nH]nc1-c1ccc(F)cc1`, for which the cytotoxicity at 70.5 h was -1.41%.

For `Cc1csc2c(N3CCNC(C(=O)NCc4cccnc4)C3)ncnc12` (configuration not stated), the cytotoxicity at 70.5 h was 18.9%.

`Cc1nc[nH]c1CN1CCn2nc(CN3CC[C@H](F)C3)cc2C1`: the cytotoxicity at 70.5 h was -8.01%.

For the compound `COc1ccc2c(c1)OCC(C(=O)NCc1ncc3c(n1)CCC3)C2` (configuration not stated), the cytotoxicity at 70.5 h was -8.14%.

As to `Cn1nc2c(c1NC(=O)c1ccc(C3CCCN3C3CCC3)s1)CCC2` (configuration not stated), the cytotoxicity at 70.5 h is -6.85%.

Consider `Cc1cccnc1CN1CCN(C(=O)c2ccn(C(C)(C)C)c2)CC1`, for which the cytotoxicity at 70.5 h was 40.4%.

For `COc1ccc(-c2ccccc2CN)c(OC)c1`, the cytotoxicity at 70.5 h was determined as 21.8%.

On to `COc1ccc(F)c(-c2ccnc(N)c2)c1`, for which the cytotoxicity at 70.5 h is -14.3%.

With `CN(C)CCn1ccnc1C1CCN(c2cc(N)nc(N)n2)CC1`, the cytotoxicity at 70.5 h is -6.61%.

Regarding `CCc1nc(CCn2ccc3nc(OC)c(C#N)cc3c2=O)no1`, the cytotoxicity at 70.5 h was -4.1%.

On to `CCCS(=O)(=O)N1CCCC(c2cccc(C(=O)O)c2)C1` (configuration not stated), for which the cytotoxicity at 70.5 h was -9.39%.

In the case of `CCC[C@@H]1CN(C(=O)c2cnc3ccccc3c2)C[C@H]1NS(C)(=O)=O`, the cytotoxicity at 70.5 h is -1.26%.

As to `O=C(NCc1nc(NC2CCCC2)c2cc(Cl)ccc2n1)c1cncs1`, the cytotoxicity at 70.5 h is -13.7%.

Consider `COCCCN(C)c1nc(-c2ccncc2)nc2c1CCN(C(C)=O)C2`, for which the cytotoxicity at 70.5 h was -7.86%.

In the case of `CCn1cncc1CNc1ccc(-c2nc(CC(C)C)no2)cn1`, the cytotoxicity at 70.5 h was 2.85%.

Consider `CN1CCc2[nH]cnc2C12CCN(C(=O)c1noc3c1CCCC3)CC2`, for which the cytotoxicity at 70.5 h was -10.9%.

Consider `CN1CCC(N(CCc2ccccc2)C(=O)c2ccc(C#N)nc2)CC1`, for which the cytotoxicity at 70.5 h is -3.27%.

Take `Cc1cccc(-c2ncc(CNC(C)Cc3ncccc3C)cn2)c1` (configuration not stated): the cytotoxicity at 70.5 h amounted to 48.7%.

With `Cc1noc(-c2ccnc(N3CCN(C4CCOCC4)CC3)c2)n1`, the cytotoxicity at 70.5 h stood at 10.1%.

Regarding `Cc1ccccc1-c1cccc(CN2C[C@H]3C(=O)NC[C@@]3(C(=O)O)C2)c1`, the cytotoxicity at 70.5 h worked out at 12.4%.

Take `O=C1NC[C@@]2(C(=O)O)CN(Cc3cccc(OC4CCCC4)c3)C[C@@H]12`: the cytotoxicity at 70.5 h is -3%.

As for `Cc1ccccc1N1CCN(C(=O)Cn2ccnc2)CC1=O`, the cytotoxicity at 70.5 h came out at 14.2%.

`Cc1ccc(Cl)c(CN2CCC3(CC2)C(C(=O)O)CC(=O)N3C)c1F` (configuration not stated): the cytotoxicity at 70.5 h is -5.82%.

Turning to `O=C(CC[C@@H]1CCCN2CCCC[C@H]12)N1CCC(c2nnc[nH]2)CC1`, the cytotoxicity at 70.5 h is -7.68%.

Take `COc1ccc(CCN2C(=O)O[C@@H]3CN(C4CCOCC4)C[C@@H]32)cc1`: the cytotoxicity at 70.5 h came to 5.89%.

In the case of `O=C(NC1CCN(C2CC2)CC1)N1CCN(c2cnccn2)CC1`, the cytotoxicity at 70.5 h is 3.56%.

Regarding `Cc1ccc(-c2cc(CNC(=O)N3CCC(N(C)C)CC3)on2)cc1`, the cytotoxicity at 70.5 h is 4.4%.

Regarding `CC(C)N1CCN(C(=O)Nc2cnc3c(cnn3C(C)C)c2)CC1`, the cytotoxicity at 70.5 h was 1.68%.

As to `Cc1nc(CNC(=O)NCC(O)c2ccccc2)cs1` (configuration not stated), the cytotoxicity at 70.5 h is -2.52%.

Regarding `CC(C)C(C(=O)N1CCN(c2nccs2)CC1)n1cncn1` (configuration not stated), the cytotoxicity at 70.5 h was 0.606%.

On to `CC(C)n1ncc2cc(NC(=O)N3CCC(CO)CC3)cnc21`, for which the cytotoxicity at 70.5 h worked out at 3.41%.

As for `CC(=O)N1CCC(NC(=O)N2CCN(c3cnccn3)CC2)CC1`, the cytotoxicity at 70.5 h stood at 1.14%.

Regarding `CCc1nc(C2CCCN(C(=O)c3ccccc3Cl)C2)no1` (configuration not stated), the cytotoxicity at 70.5 h is -1.75%.

With `COc1c(C2CCCN2CC(=O)Nc2cccnc2)c(C)nn1C` (configuration not stated), the cytotoxicity at 70.5 h is -6.38%.

As to `Cc1nc(C2CCCN2CC(=O)N(C)Cc2ccsc2)no1` (configuration not stated), the cytotoxicity at 70.5 h was determined as 12.6%.

On to `Cc1nc(C2CCCN2CC(=O)NCCc2ccc(Cl)cc2)no1` (configuration not stated), for which the cytotoxicity at 70.5 h is -2.31%.

Take `Cc1nc(CN(C)C2CCN(CC3CCCC3)C2)no1` (configuration not stated): the cytotoxicity at 70.5 h is -1.44%.

As to `CC(=O)c1cccc(NC(=O)CCn2nc(-c3cccs3)oc2=O)c1`, the cytotoxicity at 70.5 h is -18.2%.

On to `CC(=O)c1cccc(NC(=O)Cn2nc(-c3cccs3)oc2=O)c1`, for which the cytotoxicity at 70.5 h was 10.5%.

`O=C(C1CCN(Cc2nc(-c3ccco3)no2)CC1)N1CCCC1`: the cytotoxicity at 70.5 h was -4.18%.

For `COc1ncccc1C(=O)NC1CCOc2ccccc21` (configuration not stated), the cytotoxicity at 70.5 h is -6.62%.

With `CCOc1cc(C(=O)NS(=O)(=O)c2cccc(C#N)c2)ccc1OC`, the cytotoxicity at 70.5 h was -10%.

For `CC(C(=O)N1CCOCC1)N1CCN(Cc2nccn2C)CC1` (configuration not stated), the cytotoxicity at 70.5 h was -2.07%.

For `Cc1nccn1C1CCCN(C(=O)c2ccc3c(c2)nc(C)n3C)C1` (configuration not stated), the cytotoxicity at 70.5 h was -3.08%.

In the case of `NC(=O)c1ccc(C(=O)N2CCCCC2Cn2cccn2)s1` (configuration not stated), the cytotoxicity at 70.5 h turned out to be 19.1%.

With `CCc1nc(C2CCCN2C(=O)CCc2nc(C3CC3)no2)no1` (configuration not stated), the cytotoxicity at 70.5 h is -1.64%.

Take `CC(=O)N(Cc1noc(C2CC2)n1)C1CCN(CC(=O)NC2CC2)C1` (configuration not stated): the cytotoxicity at 70.5 h was -7.63%.

Regarding `CC(=O)N(Cc1noc(C2CC2)n1)C1CCN(Cc2cc(C)on2)C1` (configuration not stated), the cytotoxicity at 70.5 h was -3.51%.

In the case of `O=C(c1cc2c(s1)CCCC2)N1CCCC1Cn1cccn1` (configuration not stated), the cytotoxicity at 70.5 h is -4.37%.

In the case of `COCCCN1CCC(N(Cc2noc(C)n2)C(C)=O)C1` (configuration not stated), the cytotoxicity at 70.5 h was -5.67%.

Regarding `c1cnn(CC2CN(Cc3nnc(C4CC4)o3)CCO2)c1` (configuration not stated), the cytotoxicity at 70.5 h is -4.26%.

`CCc1nc(C2CCCN2C(=O)CCc2nc(C(C)(C)C)no2)no1` (configuration not stated): the cytotoxicity at 70.5 h stood at 15.3%.

For `Cc1nnc2n1CCN(Cc1csc(-c3ncccn3)n1)C2`, the cytotoxicity at 70.5 h was determined as 39.4%.

Take `CCc1nnc2n1CCN(Cc1csc(Cc3ccccc3)n1)C2`: the cytotoxicity at 70.5 h stood at 15.5%.

For the compound `CCOc1ccc(CN2CCN(C(=O)c3cc(C4CC4)[nH]n3)CC2)cc1`, the cytotoxicity at 70.5 h was -2.02%.

On to `CC(C)c1ccc(CN2CCN(C(=O)c3cc(C4CC4)[nH]n3)CC2)cc1`, for which the cytotoxicity at 70.5 h is 44.7%.

In the case of `CC(C)c1noc(CN2CCN(C(=O)c3cccnc3O)CC2)n1`, the cytotoxicity at 70.5 h is -3.73%.

For `O=C(CN1CCN(c2nccs2)CC1)Nc1cccnc1`, the cytotoxicity at 70.5 h was -7.83%.

As to `NC(=O)C1CN(C(=O)Nc2ccc(SC(F)(F)F)cc2)CCO1` (configuration not stated), the cytotoxicity at 70.5 h is -10.3%.

For the compound `Cc1ccccc1NC1CCN(C(=O)CCc2ccco2)CC1`, the cytotoxicity at 70.5 h amounted to 1.41%.

In the case of `NC(=O)C1CN(C(=O)Nc2ccccc2OCC(F)(F)F)CCO1` (configuration not stated), the cytotoxicity at 70.5 h was -4.53%.

Regarding `c1ccc2oc(N3CCCC3Cn3cncn3)nc2c1` (configuration not stated), the cytotoxicity at 70.5 h was -3.56%.

(Values after ChEMBL document CHEMBL3507680, “University of Dundee, Gates Library screen for HepG2 cell viability”.)
